Source: ChEMBL document CHEMBL1147521 (Bioorg Med Chem Lett, 2004)

Experiments:
[1] = biological target: T1, Prostaglandin G/H synthase 1 (Ovis aries, UniProt P05979); test: In vitro inhibitory activity against prostaglandin G/H synthase 1 from ovine
T1 sequence (P05979 whole entry): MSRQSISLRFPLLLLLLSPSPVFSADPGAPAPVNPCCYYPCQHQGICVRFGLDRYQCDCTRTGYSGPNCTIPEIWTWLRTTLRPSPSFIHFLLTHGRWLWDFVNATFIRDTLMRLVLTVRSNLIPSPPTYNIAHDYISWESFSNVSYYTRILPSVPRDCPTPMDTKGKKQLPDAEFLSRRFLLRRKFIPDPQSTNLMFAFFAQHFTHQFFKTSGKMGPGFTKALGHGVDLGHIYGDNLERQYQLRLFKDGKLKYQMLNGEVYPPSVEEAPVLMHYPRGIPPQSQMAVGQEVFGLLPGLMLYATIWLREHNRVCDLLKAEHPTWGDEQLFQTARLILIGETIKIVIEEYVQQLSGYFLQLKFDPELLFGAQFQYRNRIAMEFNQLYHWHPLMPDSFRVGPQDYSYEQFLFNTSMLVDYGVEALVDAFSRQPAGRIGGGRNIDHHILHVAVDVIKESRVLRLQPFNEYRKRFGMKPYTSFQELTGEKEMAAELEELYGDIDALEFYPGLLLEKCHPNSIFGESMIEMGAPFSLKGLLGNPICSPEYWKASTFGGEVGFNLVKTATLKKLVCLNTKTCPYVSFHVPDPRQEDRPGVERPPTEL

[2] = biological target: T2, Prostaglandin G/H synthase 2 (Ovis aries, UniProt P79208); test: In vitro inhibitory activity against prostaglandin G/H synthase 2 from ovine
T2 sequence (P79208 whole entry): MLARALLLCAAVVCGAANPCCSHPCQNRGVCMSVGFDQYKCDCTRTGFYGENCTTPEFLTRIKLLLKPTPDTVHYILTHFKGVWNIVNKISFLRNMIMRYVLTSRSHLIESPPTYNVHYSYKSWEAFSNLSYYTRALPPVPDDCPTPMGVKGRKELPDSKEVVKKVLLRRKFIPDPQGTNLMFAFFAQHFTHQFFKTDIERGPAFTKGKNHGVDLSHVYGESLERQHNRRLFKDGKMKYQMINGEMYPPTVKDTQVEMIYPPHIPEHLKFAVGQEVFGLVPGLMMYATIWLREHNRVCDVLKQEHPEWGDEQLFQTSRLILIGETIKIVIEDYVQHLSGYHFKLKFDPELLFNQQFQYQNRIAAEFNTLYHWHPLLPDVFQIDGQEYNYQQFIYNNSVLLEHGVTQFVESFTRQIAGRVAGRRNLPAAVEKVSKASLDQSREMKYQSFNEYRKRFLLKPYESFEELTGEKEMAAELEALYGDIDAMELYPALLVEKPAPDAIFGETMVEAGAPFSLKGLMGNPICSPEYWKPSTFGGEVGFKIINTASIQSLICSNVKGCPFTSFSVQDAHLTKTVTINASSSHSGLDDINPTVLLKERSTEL

Compound | IC50 [1] [µM] | IC50 [2] [µM]
CC(=O)NS(=O)(=O)c1ccc(C2=C(c3ccc(S(C)(=O)=O)cc3)C(=O)OC2)cc1 | > 100 | 0.05
CS(=O)(=O)c1ccc(C2=C(c3ccc(S(=O)(=O)N=[N+]=[N-])cc3)COC2=O)cc1 | > 100 | 3.1
CS(=O)(=O)c1ccc(C2=C(c3ccc(S(N)(=O)=O)cc3)COC2=O)cc1 | > 100 | > 100
CS(=O)(=O)c1ccc(C2=C(c3ccc(S(N)(=O)=O)cc3)C(=O)OC2)cc1 | > 100 | > 100
CS(=O)(=O)c1ccc(C2=C(c3ccc(S(=O)(=O)N=[N+]=[N-])cc3)C(=O)OC2)cc1 | 31.5 | 11
CC(=O)NS(=O)(=O)c1ccc(C2=C(c3ccc(S(C)(=O)=O)cc3)COC2=O)cc1 | 3.2 | 4.6
CS(=O)(=O)c1ccc(C2=C(c3ccccc3)C(=O)OC2)cc1 [ROFECOXIB] |  | > 0.43
